Source: patent US5346814A, “Method of detecting cell response to cell-damaging energy” (Board of Trustees of the Leland Stanford Jr. University, priority 1992, dated 1994)
“Also recorded” adds a separate entry of the source.

Tests used:
[1] = tested on: voltage-dependent potassium currents in RIF-1 cells; test: Whole-cell voltage-clamp recording of heat-inducible potassium currents in DMSO-treated RIF-1 cells; type: cell-based, murine; conditions: RIF-1 cells grown in 2% DMSO
Protocol: (§1) Voltage-Clamp Recordings.
The potassium currents of RIF-1 cells grown in the presence of 2% DMSO as above (Example 7) were determined in the presence and absence of 20 mM TEA following heating of the cells at 45° C. for 10 minutes, as in Example 2.

HSP70 = test: Western blot of HSP70 polypeptide levels in RIF-1 cells (N-27 antibody); type: cell-based, murine
Protocol: Western Blot Analysis In general, following separation of cellular proteins by sodium dodecyl sulfate (SDS)-polyacrylamide gel electrophoresis, separated proteins were electroblotted onto a nitrocellulose membrane using a 25 mM Tris-HCl/192 mM glycine/20% (v/v) methanol transfer buffer (pH 8.3) in a Trans-Blot apparatus (Bio-Rad, Richmond, Calif.) at 15 V and 100 mA for 12 to 14 h. The blot was blocked in 5% nonfat dry milk in TBS (50 mM Tris containing 0.2 M NaCl, pH 7.4) at room temperature for 1h; this step and all following steps were done with continuous agitation. The primary antibody was diluted 1:200 in 3% nonfat dry milk in TBS, and the blot was incubated for 16 to 24 h at 4° C. […]
RIF-1 cells were grown for 7 days in the presence of 2% DMSO as in Example 9. After the seventh day, cells were heated at 45° C. for 10 min, and were analyzed either immediately by SDS gel/Western blot analysis, or after an additional 18 hour growth period at 37° C. to allow synthesis of heat-inducible HSP70 polypeptides. […]
In a parallel set of experiments, heating of the mock- and gene-transfectedcells was performed in the presence or absence of 20 mM TEA, and the expression of HSP70 proteins was determined by immunoblot analysis, using the HSP70-specific N-27 antibody as in Example 10.

RIF-1 cells = test: Clonogenic survival assay after heating at 45° C., RIF-1 cells; type: cell-based, murine
Protocol: RIF-1 cells were grown at 37° C. in RPMI-1640 medium supplemented with 10% FBS and 2% (v/v) DMSO (dimethylsulfoxide). After seven days of growth, the medium was replaced with DMSO-free medium, and the heat sensitivity of the cells in the presence and absence of 20 mM TEA was determined by clonogenic assay as in Example 4. The results are shown in FIGS. 7A and 7B, with survival data for non-DMSO-treated RIF-1 cells shown for comparison.

[2] = tested on: K+ channel proteins recognized by antibody ShA-3; test: Western blot of K+ channel proteins in RIF-1 cells (ShA-3 antibody); type: cell-based, murine; conditions: RIF-1 cells grown in 2% DMSO for 3, 5, 7 days
Protocol: Western Blot Analysis In general, following separation of cellular proteins by sodium dodecyl sulfate (SDS)-polyacrylamide gel electrophoresis, separated proteins were electroblotted onto a nitrocellulose membrane using a 25 mM Tris-HCl/192 mM glycine/20% (v/v) methanol transfer buffer (pH 8.3) in a Trans-Blot apparatus (Bio-Rad, Richmond, Calif.) at 15 V and 100 mA for 12 to 14 h. The blot was blocked in 5% nonfat dry milk in TBS (50 mM Tris containing 0.2 M NaCl, pH 7.4) at room temperature for 1h; this step and all following steps were done with continuous agitation. The primary antibody was diluted 1:200 in 3% nonfat dry milk in TBS, and the blot was incubated for 16 to 24 h at 4° C. The blot was washed with TBS three times for 10 min per wash, and incubated for 2 h at room temperature with a 1:500 dilution of alkaline phosphatase-conjugated antispecies antibody. After washing with TBS as above, the blot was developed by incubation for 20 min in a solution containing 3-hydroxy-2-naphthoic acid 2,4-dimethylanilide phosphate (1 μg/ml ) and fast red (2 μg/ml) in TBS buffer. The developed blot was washed in distilled, deionized water to stop the color reaction.
RIF-1 and TR-4 cells were grown in exponential phase at 37° C. in RPMI-1640 medium supplemented with 10% FBS. […]

[3] = tested on: voltage-dependent potassium currents in A549 cells; test: Whole-cell voltage-clamp recording of K+ currents in non-irradiated A549 cells after chemical treatment; type: cell-based, human
Protocol: Voltage-Clamp Recordings. Whole-cell recording was performed by voltage clamp analysis as described by Hamill et al. (1981). In general, prior to whole cell recording, the cell medium was replaced with serum-free medium to ensure a better giga-ohm seal. […] Glass electrodes having a tip resistance of 3-7 Mohms were sylgarded (with Sylgard, Dow Chemical) and backfilled with a solution containing 140 mM KCl, 2 mM MgCl2, 11 mM EGTA, 1 mM CaCl2, and 10 mM Hepes, pH 7.2. […] A test pulse of 20 mV was applied, and the cell was then aspirated against the tip of the microelectrode. The membrane seal resistance was determined from the reduction in voltage of the test pulse.
Membrane currents were filtered at 2 kHz using a 4-pole low pass Bessel filter before sampling with a 12-bit digital-analog converter controlled by a Labmaster board (Scientific Solutions) in an IBM AT computer. Leakage currents were subtracted from the total currents measured at each voltage either by using a p,p/4 algorithm (Armstrong and Bezanilla, 1974) built into the software (INDEC Systems, Santa Cruz, Calif.), or after determining the linear component from the current-voltage (I-V) relation near the holding potential of -75 mV. The limit of sensitivity of the current measurements in these experiments was about 50-60 pA.

[4] = tested on: voltage-dependent potassium currents in A549 cells; test: Whole-cell voltage-clamp recording of radiation-induced K+ currents in A549 cells; type: cell-based, human
Protocol: as §1
In a second study, to determine whether the induced currents -were affected by the presence of TEA, A549 cells were exposed to 150 cGy of 137Cs γ-irradiation, and the radiation-induced currents were measured under three different conditions: (a) directly after irradiation, (b) after replacement of the bath solution with medium containing 20 mM TEA and (c) after the TEA solution of step (b) had been replaced with TEA-free medium.
A549 cells grown as described in the Materials and Methods section were preincubated for 1 h in medium containing 20 mM N-acetylcysteine (NAC) (Schreck et al., 1991). The cells, still in the presence of NAC, were then irradiated (150 cGy), and the induced currents were recorded. The results are shown in FIG. 19 (open circles, irradiation without NAC preincubation; open triangles, preincubation with 20 mM NAC; solid circles, non-irradiated control cells).

[5] = tested on: voltage-dependent potassium channel currents in TR-4 cells; conditions: 20 mM TEA in cell medium during current measurement; TR-4 cells heated 45° C. 10 min
Protocol: Voltage-Clamp Recordings. Whole-cell recording was performed by voltage clamp analysis as described by Hamill et al. (1981). In general, prior to whole cell recording, the cell medium was replaced with serum-free medium to ensure a better giga-ohm seal. Glass electrodes were prepared using a vertical pipette puller (model P30 from Sutter Instruments, Calif.). The tip diameter to be achieve depended upon the size of the cell-type being examined, but was generally between about 0.5 and 1 μm. Glass electrodes having a tip resistance of 3-7 Mohms were sylgarded (with Sylgard, Dow Chemical) and backfilled with a solution containing 140 mM KCl, 2 mM MgCl2, 11 mM EGTA, 1 mM CaCl2, and 10 mM Hepes, pH 7.2. […] The membrane seal resistance was determined from the reduction in voltage of the test pulse.
Membrane currents were filtered at 2 kHz using a 4-pole low pass Bessel filter before sampling with a 12-bit digital-analog converter controlled by a Labmaster board (Scientific Solutions) in an IBM AT computer. Leakage currents were subtracted from the total currents measured at each voltage either by using a p,p/4 algorithm (Armstrong and Bezanilla, 1974) built into the software (INDEC Systems, Santa Cruz, Calif.), or after determining the linear component from the current-voltage (I-V) relation near the holding potential of -75 mV. […]

A549 cells = conditions: 20 mM TEA in cell medium during irradiation, doses greater than about 200 cGy
Protocol: γ-irradiation. Cells were irradiated at room temperature using a ^137 [Cs] source at a dose rate of 150 cGy/min. The ^137 [Cs] source consisted of a Mark I irradiator (model 30, 2000 Ci ^137 [Cs]) from J. L. Shepherd and Associates (Glendale, Calif.). Unless noted otherwise, the cells were incubated at 37° C. after irradiation for further characterization.
In another experiment, cell survival of A549 cells was measured as a function of ^137 Cs irradiation dosages (0-1000 cGy) in the presence or absence of 20 mM TEA in the cell medium during irradiation.

TR-4 cells = conditions: 20 mM TEA during 45° C. 40 min heating step and/or 12 h 37° C. incubation
Protocol: The development of thermotolerance in TR-4 cells in the presence or absence of 20 mM TEA was assessed by heating the cells at 45° C. for 40 min, followed by a 12 h incubation at 37° C. (Hahn and van Kersen, 1988), and assessment of cell survival following heating and clonogenic assay as described in Example 4. Five groups of TR-4 cells (a to e) were examined, differing only as to which steps of the procedure included TEA in the cell medium.

heat shock factor (HSF) = tested on: heat shock factor (HSF)
Protocol: To determine whether the presence of TEA during heating prevented the activation of heat shock factor (HSF), RIF-1 and TR-4 cells grown as in Example 1 were heated at 45° C. for 15-40 minutes in the presence or absence of 20 mM TEA in the medium. After being washed with fresh medium (no TEA), the cells were harvested, and gel retardation assays were performed as described by Zimarino et al. (1987), except that the electrophoresis was performed on a 4.5% native polyacrylamide gel in 0.5X TBE buffer (45 mM Tris-borate, 1 mM EDTA) at 140 V at room temperature for 2.5 h. The gel was fixed by soaking in 7% acetic acid for 5 min, rinsed briefly in distilled water, and dried on Whatman 3 MM chromatography paper. The gel was then autoradiographed by exposing Kodak XAR-2 film to the gels at -70° C. with intensifying screens (Cronex Lighting Plus, Dupont).

C[S+](C)[O-] [DMSO, dimethylsulfoxide]
voltage-dependent potassium currents in DMSO-cultured cells after heating ([1]; heated 45° C. 10 min): exhibited voltage-dependent potassium currents
effect on level of cellular HSP70 (HSP70; RIF-1 cells grown 7 days in 2% DMSO, heated 45° C. 10 min, analyzed directly or after 18 hour growth): no effect on the level of cellular HSP70
heat resistance of cells cultured in DMSO (RIF-1 cells; RIF-1 cells cultured in 2% (v:v) DMSO for seven days, then heated at 45° C.): significantly more heat resistant
expression of K+ channel proteins recognized by ShA-3 antibody [2]: expressed at higher levels than in cells grown without DMSO; also recorded: increased with increasing duration of exposure

OO [Hydrogen peroxide, hydrogen peroxide]
induction of voltage-dependent potassium current ([3]; 3.0 μM final concentration in cell medium, measured within 30 seconds): sizeable voltage-dependent current

CC(=O)N[C@@H](CS)C(=O)O [N-acetylcysteine]
effect on induction of potassium currents by irradiation ([4]; 20 mM, 1 h preincubation and present during 150 cGy irradiation): effective to substantially reduce current induction

CC[N+](CC)(CC)CC.[Cl-] [TEA, Tetraethylammonium chloride]
effect on heat-induced currents in DMSO-cultured cells ([1]; 20 mM TEA in cell solution during current measurements): virtually abolished the currents
inhibitory effect on expression of HSP70 (constitutive and inducible forms) (HSP70; 20 mM TEA during heating 10 min 45° C., ShakerB-transfected vs mock-transfected RIF-1 cells): greater in the cells transfected with the ShakerB gene than in mock transfected cells; also recorded: greater in the cells transfected with the ShakerB gene than in the mock-transfected cells
effect on heat-induced voltage-dependent potassium currents [5]: abolished nearly all detectable current
effect on radiation-induced potassium currents ([4]; 20 mM TEA after 150 cGy 137Cs irradiation): reversible inhibition; also recorded: could be inhibited by TEA
effect on cytotoxicity of 137Cs irradiation (A549 cells): cytotoxicity was increased somewhat
effect on development of thermotolerance (TR-4 cells): little effect on the development of thermotolerance
effect on survival rate after heating (RIF-1 cells; 20 mM TEA during heating at 45° C. for 0-100 min, RIF-1 cells): no effect on the survival rate of the RIF-1 cells; also recorded: no effect on the survival rate of RIF-1 cells
effect on heat resistance of DMSO-cultured cells (RIF-1 cells; 20 mM TEA in medium during heating, RIF-1 cells cultured 7 days in 2% DMSO): diminished heat resistance
effect on heat-induced activation of HSF (heat shock factor (HSF)): eliminated most or all of the heat-induced activation of HSF
effect on levels of activated HSF (heat shock factor (HSF)): no effect on the levels of activated HSF

Cc1cn([C@H]2C[C@H](O)[C@@H](CO)O2)c(=O)[nH]c1=O [[^3 H]thymidine]
induction of potassium currents ([3]; 2 μCi/ml for 16-18 hours prior to whole-cell recording): No potassium currents were observed
